In one experiment the target is COX1 (Homo sapiens, UniProt P23219). The conditions noted are these: compared with other types of deuterated arachidonic acid; unmodified arachidonic acid as control. How it is done:
The effect of a high level of isotopically modified polyunsaturated lipid (e.g. arachidonic acids having deuterium at bis-allylic sites) on the enzymatic activity of cyclooxygenase (COX) was examined in vitro. The COX1 activity was measured by oxygen consumption (Clark electrode) in vitro. […] Arachidonic acid with no deuterium modification was used as a control.

Another experiment has as its system Aldh2−/− mice. The conditions noted are these: Aldh2−/− mice as well as APP/PS1 and 3×Tg transgenic mice; cited from earlier work.

Molecules are shown by their SMILES.

Sequence of COX1 (P23219 24-599): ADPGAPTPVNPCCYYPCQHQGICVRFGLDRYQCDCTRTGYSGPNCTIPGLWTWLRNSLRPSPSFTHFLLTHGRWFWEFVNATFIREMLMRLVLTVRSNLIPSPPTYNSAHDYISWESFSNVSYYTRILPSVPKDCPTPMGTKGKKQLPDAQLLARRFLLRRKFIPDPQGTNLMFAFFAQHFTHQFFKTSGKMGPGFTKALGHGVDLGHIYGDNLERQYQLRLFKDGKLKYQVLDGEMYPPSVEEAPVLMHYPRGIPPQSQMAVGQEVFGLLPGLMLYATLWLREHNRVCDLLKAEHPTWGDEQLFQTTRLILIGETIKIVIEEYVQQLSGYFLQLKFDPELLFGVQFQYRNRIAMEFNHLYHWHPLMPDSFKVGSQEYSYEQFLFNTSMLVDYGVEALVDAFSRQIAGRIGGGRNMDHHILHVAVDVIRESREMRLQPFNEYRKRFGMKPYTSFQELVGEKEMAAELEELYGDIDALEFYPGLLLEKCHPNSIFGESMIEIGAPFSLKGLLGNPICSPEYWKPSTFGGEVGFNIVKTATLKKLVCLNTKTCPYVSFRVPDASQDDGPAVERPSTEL

As to `[2H]C([2H])(/C=C\C/C=C\C/C=C\CCCC(=O)O)/C=C\CCCCC` [13,13-D2-arachidonic acid], the “reduction of COX1 activity” value on COX1 is reported as “most effective in reducing the activity of COX1”. Regarding `Cc1ncsc1CCO[N+](=O)[O-].Cl` [NMZ, 4-methyl-5-(2-(nitrooxy)ethyl)thiazol-3-ium chloride], the memory result in the experiment on Aldh2−/− mice is listed as “memory can be improved”.

These data come from patent US11166930B2, “Isotopically modified components and therapeutic uses thereof” (RETROTOPE, INC., priority 2016, dated 2021).
